Drawing on ChEMBL document CHEMBL5728503, “Second generation GRP94-selective inhibitors” (2021), this text covers Kd for 13 compounds.

Chain of Endoplasmin (P41148 whole entry): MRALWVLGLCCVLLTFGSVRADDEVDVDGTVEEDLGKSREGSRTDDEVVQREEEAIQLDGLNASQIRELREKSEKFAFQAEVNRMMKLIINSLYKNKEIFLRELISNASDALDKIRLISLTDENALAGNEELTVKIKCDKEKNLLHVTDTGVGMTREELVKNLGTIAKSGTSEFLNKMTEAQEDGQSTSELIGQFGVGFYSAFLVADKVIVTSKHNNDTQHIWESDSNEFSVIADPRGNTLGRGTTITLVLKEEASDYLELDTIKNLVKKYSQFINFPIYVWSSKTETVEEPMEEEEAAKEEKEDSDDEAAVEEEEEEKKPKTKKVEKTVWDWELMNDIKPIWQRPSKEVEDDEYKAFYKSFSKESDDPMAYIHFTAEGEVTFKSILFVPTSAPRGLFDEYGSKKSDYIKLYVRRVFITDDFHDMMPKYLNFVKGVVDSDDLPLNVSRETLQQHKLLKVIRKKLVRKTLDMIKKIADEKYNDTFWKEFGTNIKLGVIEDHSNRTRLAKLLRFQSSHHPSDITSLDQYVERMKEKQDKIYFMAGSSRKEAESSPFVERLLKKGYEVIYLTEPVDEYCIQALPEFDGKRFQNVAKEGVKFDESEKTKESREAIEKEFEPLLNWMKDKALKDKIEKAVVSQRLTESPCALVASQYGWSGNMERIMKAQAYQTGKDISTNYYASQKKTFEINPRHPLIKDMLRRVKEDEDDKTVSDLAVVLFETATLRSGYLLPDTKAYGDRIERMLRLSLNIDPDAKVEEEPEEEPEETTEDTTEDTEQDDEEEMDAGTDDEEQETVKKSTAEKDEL

This assay has as its target Endoplasmin (Canis lupus familiaris, UniProt P41148). As to the kind of experiment: Fluorescence Polarization Assay: The assay was performed in 96-well black, flat-bottom plates with a final volume of 100 μL. 25 μL of assay buffer (20 mM HEPES, pH 7.3, 50 mM KCl, 5 mM MgCl2, 20 mM Na2MoO4, 2 mM DTT, 0.1 mg/mL BGG, and 0.01% NP-40) were added, followed by 25 μL of assay buffer containing 6 nM FITC-GDA (fluorescent tracer, stock in DMSO, diluted in assay buffer) and 50 μL of assay buffer containing 10 nM of either Grp94 or Hsp90α were added to each well. For each plate, wells containing buffer only (background), tracer in buffer only (low polarization control) and protein, tracer, and 1% DMSO (final concentration, high polarization control) were included. Compounds were then added with a final concentration of DMSO=1%. Plates were incubated at 4° C. with rocking for 24 h. […] Polarization values were correlated to % tracer bound and compound concentrations. For orientation: Polarisation of emitted light reports the rotation of a fluorescent probe.
By Kd is commonly meant the constant that tells how readily two partners part at equilibrium. The compound `COC(=O)c1c(O)cc(O)c(Cl)c1CCc1cccc(Cc2ccccc2)c1` yielded a Kd of 10400 nM. This lies in the double-digit micromolar range. Then `COC(=O)c1c(O)cc(O)c(Cl)c1CCc1ccc(O)cc1Cc1ccccc1`, with 330 nM; and `COC(=O)c1c(O)cc(O)c(Cl)c1CCc1ccc(N)cc1Cc1ccccc1`, with 240 nM; and `COC(=O)c1c(O)cc(O)c(Cl)c1CCc1cc(OC)ccc1Cc1ccccc1`, with 450 nM. Consider `COC(=O)c1c(O)cc(O)c(Cl)c1CCc1ccccc1Cc1cccc(Cl)c1`, for which the Kd amounted to 11900 nM. The result for `COC(=O)c1c(O)cc(O)c(Cl)c1CCc1cccc(O)c1Cc1ccccc1` reads 540 nM; that for `COC(=O)c1c(O)cc(O)c(Cl)c1CCc1ccccc1Cc1ccccc1OC`, 7800 nM; that for `COC(=O)c1c(O)cc(O)c(Cl)c1CCc1cc(N)ccc1Cc1ccccc1`, 280 nM. The result for `CCOc1ccccc1Cc1ccccc1CCc1c(Cl)c(O)cc(O)c1C(=O)OC` reads 6100 nM; that for `COC(=O)c1c(O)cc(O)c(Cl)c1CCc1cccc(OC)c1Cc1ccccc1`, 730 nM. The result for `COC(=O)c1c(O)cc(O)c(Cl)c1CCc1ccc(OC)cc1Cc1ccccc1` reads 680 nM. For the compound `COC(=O)c1c(O)cc(O)c(Cl)c1CCc1ccccc1Cc1ccccc1Cl`, binding was put at a Kd of 5500 nM. Then `COC(=O)c1c(O)cc(O)c(Cl)c1CCc1ccccc1Cc1ccc(Cl)cc1`, with 4200 nM.
